Laboratory results taken from patent US10947242B2, “[1,2,4]triazolo[1,5and#8208;A]pyrimidine compounds as PDE2 inhibitors” (Janssen Pharmaceutica NV, priority 2016, dated 2021).
Several values for one entry are separate records, joined by “and”; a condition that tells them apart may be missing. Equal values may be shown once. Read-outs that look alike come from different tables or passages of the source.

Assays:
[1] = target: T1, Human recombinant PDE2A (hPDE2A) (Homo sapiens, UniProt O00408); test: In vitro assay PDE2A (SPA, 3H-cGMP hydrolysis); assay type: biochemical; settings: for Emax: read-out: hPDE2A Emax; for IC50: read-out: hPDE2A pIC50 (converted)
T1 construct: His tag (inferred from metal chelate purification); made in house; host or cells: Sf9 insect cells (baculovirus)

[2] = target: T2, Human recombinant PDE3A (hPDE3A) (Homo sapiens, UniProt Q14432); test: In vitro assay PDE3A (SPA, 3H-cAMP hydrolysis); assay type: biochemical; settings: for IC50: hPDE3B pIC50, read-out: pIC50 (converted); for Emax: read-out: hPDE3B Emax, read-out: Emax;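 on all read-outs here: the method names PDE3A and the table heading PDE3B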
T2 construct: purchased Scottish Biomedical; host or cells: Sf9 insect cells
How it was run: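 Radiometric SPA measuring [3H]-cAMP hydrolysis (0.4 μM cAMP, 2.4 μCi/ml) over 60 min at room temperature, in Tris pH 7.8 buffer with MgCl2 and EGTA, 1% DMSO. Enzyme: recombinant human brain PDE3A expressed in Sf9 cells, used as partially purified lysate. Counts compared with enzyme-free blanks and vehicle controls.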

[3] = target: T3, Human recombinant PDE10A (hPDE10A) (Homo sapiens, UniProt Q9Y233); test: In vitro assay PDE10A, human clone (SPA, 3H-cAMP hydrolysis); assay type: biochemical
T3 construct: His tag (inferred from metal chelate purification); made in house; host or cells: Sf9 insect cells (baculovirus)
How it was run: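 Hydrolysis of 3H-cAMP (60 nM cAMP, 0.008 μCi tracer) proceeded for 60 min at room temperature, with the product detected by SPA bead scintillation counting. The enzyme was hPDE10A from baculovirus-infected Sf9 cells in Tris pH 7.8 buffer with MgCl2 and EGTA, and compounds were at 1% DMSO final. Blanks lacked enzyme.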

PDE2A = target: T4, PDE2A (Rattus norvegicus, UniProt Q01062); test: PDE2 occupancy by test compounds, ex-vivo autoradiography with [3H]B-17a; assay type: in vivo, Male Wistar rats; settings: for ED50: read-out: PDE Occupancy ED50
T4 construct: Twenty μm-thick striatal sections were cut; from tissue; host or cells: rat brain, striatal sections
T4 sequence (Q01062 1-928): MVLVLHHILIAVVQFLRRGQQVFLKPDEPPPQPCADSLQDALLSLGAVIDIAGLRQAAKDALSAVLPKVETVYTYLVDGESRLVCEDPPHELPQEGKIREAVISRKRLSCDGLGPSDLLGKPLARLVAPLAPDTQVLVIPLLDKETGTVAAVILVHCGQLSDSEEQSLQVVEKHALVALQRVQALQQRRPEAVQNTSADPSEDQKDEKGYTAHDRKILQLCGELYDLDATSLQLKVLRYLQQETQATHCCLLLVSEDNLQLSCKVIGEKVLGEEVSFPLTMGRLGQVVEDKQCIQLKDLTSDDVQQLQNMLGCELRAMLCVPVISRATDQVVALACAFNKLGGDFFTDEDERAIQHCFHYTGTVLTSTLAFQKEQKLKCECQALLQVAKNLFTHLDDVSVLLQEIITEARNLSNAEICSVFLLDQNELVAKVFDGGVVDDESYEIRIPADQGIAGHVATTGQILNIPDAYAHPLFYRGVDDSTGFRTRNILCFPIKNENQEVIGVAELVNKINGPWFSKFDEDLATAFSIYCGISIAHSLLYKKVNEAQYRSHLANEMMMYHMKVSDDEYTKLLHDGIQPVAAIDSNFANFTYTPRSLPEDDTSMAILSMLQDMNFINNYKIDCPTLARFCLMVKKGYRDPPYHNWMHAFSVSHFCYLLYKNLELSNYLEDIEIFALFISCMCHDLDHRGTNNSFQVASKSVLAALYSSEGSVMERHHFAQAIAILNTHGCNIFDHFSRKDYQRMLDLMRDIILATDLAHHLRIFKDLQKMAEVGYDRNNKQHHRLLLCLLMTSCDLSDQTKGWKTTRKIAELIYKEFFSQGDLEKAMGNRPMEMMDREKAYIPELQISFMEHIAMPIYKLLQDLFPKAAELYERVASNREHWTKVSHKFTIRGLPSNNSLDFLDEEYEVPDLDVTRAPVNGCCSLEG

[4] = human clone by default (no (r) mark), read-out: hPDE10A2 or rPDE10A2 Emax
[5] = human clone by default (no (r) mark), read-out: hPDE10A2 or rPDE10A2 pIC50 (converted)
[6] = 10 mg/kg, route PO (oral), percentage receptor occupancy, ex-vivo autoradiography, striatum
[7] = human recombinant PDE2A, 10 μM cGMP substrate
[8] = human clone (h), default, read-out: hPDE10A2 Emax
[9] = human clone (h), default, read-out: hPDE10A2 pIC50 (converted)
[10] = po, 10 mg/kg, route PO (oral), percentage receptor occupancy, ex-vivo autoradiography, striatum
[11] = route PO (oral), drug dose producing 50% receptor occupancy
[12] = sc, 10 mg/kg, route SC (subcutaneous), percentage receptor occupancy, ex-vivo autoradiography, striatum

T1 sequence (O00408 whole entry): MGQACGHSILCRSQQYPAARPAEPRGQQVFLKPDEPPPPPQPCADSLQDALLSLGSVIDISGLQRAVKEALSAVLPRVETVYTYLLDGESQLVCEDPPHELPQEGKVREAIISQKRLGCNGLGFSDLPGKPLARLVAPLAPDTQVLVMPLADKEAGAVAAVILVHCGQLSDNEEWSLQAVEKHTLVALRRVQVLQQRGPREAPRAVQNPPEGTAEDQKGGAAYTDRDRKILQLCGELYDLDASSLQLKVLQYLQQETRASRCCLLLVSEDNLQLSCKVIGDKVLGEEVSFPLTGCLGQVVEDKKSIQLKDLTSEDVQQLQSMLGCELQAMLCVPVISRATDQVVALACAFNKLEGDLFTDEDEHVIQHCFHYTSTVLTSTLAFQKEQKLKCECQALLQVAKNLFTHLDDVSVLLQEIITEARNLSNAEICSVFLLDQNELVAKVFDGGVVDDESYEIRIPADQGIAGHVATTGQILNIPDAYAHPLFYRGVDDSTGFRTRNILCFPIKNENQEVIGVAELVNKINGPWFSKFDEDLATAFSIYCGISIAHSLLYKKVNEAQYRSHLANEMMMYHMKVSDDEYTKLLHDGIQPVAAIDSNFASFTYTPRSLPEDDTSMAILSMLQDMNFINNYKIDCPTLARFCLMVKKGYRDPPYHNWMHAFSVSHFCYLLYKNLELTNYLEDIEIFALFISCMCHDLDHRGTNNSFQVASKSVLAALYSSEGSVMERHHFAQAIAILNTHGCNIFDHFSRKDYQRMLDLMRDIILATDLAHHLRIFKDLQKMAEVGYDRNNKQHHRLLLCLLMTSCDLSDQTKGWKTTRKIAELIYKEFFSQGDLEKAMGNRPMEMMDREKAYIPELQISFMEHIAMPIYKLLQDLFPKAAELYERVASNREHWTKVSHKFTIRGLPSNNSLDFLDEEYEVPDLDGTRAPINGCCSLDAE
T3 sequence (Q9Y233 267-1055): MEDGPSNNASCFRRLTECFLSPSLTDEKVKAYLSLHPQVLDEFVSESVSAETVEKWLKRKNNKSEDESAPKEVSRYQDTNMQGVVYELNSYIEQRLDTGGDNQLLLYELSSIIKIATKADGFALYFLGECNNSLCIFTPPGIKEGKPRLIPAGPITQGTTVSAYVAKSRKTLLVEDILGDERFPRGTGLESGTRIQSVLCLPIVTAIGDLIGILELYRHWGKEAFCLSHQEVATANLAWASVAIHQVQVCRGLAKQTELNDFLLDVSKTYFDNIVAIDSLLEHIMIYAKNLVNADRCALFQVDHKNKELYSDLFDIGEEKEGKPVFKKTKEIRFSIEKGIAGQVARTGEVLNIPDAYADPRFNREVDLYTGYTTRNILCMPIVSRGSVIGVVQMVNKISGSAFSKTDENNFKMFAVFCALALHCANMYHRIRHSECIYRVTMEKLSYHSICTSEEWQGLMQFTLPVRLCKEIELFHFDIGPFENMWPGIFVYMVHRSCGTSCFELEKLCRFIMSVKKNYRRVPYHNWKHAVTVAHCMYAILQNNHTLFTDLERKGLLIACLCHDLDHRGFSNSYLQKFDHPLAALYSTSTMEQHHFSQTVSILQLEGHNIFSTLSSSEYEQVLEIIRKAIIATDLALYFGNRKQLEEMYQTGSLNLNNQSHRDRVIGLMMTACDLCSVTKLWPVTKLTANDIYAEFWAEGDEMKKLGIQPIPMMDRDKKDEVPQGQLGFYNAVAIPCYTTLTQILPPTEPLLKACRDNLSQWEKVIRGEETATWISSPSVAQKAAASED
T2 sequence (Q14432 whole entry): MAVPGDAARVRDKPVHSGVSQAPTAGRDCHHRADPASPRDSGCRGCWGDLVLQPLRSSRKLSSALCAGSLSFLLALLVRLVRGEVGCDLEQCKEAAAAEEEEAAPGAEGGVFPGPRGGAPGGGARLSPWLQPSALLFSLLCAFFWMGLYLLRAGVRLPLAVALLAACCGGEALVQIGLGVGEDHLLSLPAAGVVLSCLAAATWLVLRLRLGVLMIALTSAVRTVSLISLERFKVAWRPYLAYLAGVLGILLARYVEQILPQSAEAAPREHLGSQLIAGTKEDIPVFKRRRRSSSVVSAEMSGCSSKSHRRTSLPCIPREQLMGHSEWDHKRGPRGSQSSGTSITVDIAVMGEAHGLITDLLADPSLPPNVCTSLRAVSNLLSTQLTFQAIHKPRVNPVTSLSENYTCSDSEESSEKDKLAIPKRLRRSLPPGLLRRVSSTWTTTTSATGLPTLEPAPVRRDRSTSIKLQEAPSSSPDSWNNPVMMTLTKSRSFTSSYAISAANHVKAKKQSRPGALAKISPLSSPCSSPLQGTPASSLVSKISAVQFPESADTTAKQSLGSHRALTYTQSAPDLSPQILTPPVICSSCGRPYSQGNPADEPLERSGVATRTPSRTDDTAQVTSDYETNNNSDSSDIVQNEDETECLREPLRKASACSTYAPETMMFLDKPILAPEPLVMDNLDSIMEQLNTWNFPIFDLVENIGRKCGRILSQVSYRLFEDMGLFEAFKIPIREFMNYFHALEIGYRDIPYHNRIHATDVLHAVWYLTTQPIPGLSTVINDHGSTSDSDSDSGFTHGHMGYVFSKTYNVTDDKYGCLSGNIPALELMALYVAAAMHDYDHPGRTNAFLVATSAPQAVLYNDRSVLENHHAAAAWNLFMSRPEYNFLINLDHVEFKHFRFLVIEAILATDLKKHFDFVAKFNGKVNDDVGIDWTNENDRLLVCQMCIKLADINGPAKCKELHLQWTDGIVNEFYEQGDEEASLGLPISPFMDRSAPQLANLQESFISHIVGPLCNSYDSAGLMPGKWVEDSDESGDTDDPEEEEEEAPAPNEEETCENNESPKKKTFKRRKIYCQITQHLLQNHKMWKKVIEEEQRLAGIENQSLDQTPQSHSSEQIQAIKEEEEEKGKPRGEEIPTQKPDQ

Structure (SMILES)	Emax [1] [%]	IC50 [1] [nM]	IC50 [2] [nM]	Emax [2] [%]	Emax [3, 4] [%]	IC50 [3, 5] [nM]	IC50 [1, 7] [nM]	Emax ([1]; human recombinant PDE2A) [%]	Emax [3, 8] [%]	IC50 [3, 9]	receptor occupancy at 10 mg/kg (PDE2A; [10]) [%]	further results
CN(C)c1ccc(C(=O)N2[C@H]3CC[C@H](c4cc(C(F)F)nc5ncnn45)[C@@H]2CC3)cc1 [Compound 362]	99	1.7	871	88	93	794						receptor occupancy at 10 mg/kg (PDE2A; [6]): 3%
Cc1ccc(C(=O)N2[C@H]3CC[C@H](c4cc(C(F)F)nc5ncnn45)[C@@H]2CC3)cc1Cl [Compound 369]	100	4.9	3720	72	93	724						receptor occupancy at 10 mg/kg (PDE2A; [6]): 9%
Cc1cc(C(=O)N2CC[C@@H](C)[C@H](c3cc(C(F)F)nc4ncnn34)C2)c(F)cn1 [Compound 84]	101	3.16	7410	30			3.16	101	89	708 nM	45	ED50 (PDE2A; [11]): 14.1 mg/kg
Cc1cc([C@@H]2CN(C(=O)c3ccc4nccn4c3)CC[C@H]2C)n2ncnc2n1 [Compound 99]	100	0.603	2090	87			0.603	100	100	9.55 nM	1	
C[C@@H]1CCN(C(=O)c2ccc(C3CC3)c(F)c2)C[C@H]1c1cc(C(F)F)nc2ncnn12 [Compound 103]	99	0.708	87.1	100			0.708	99	100	18.2 nM		receptor occupancy at 10 mg/kg (PDE2A; [12]): 42%
Cc1cc(C(=O)N2CC[C@@H](C)[C@H](c3cc(C(F)F)nc4ncnn34)C2)c(C(F)(F)F)cn1 [Compound 41]	99	13.8	> 10000	17			13.8	99	72	4170 nM	8	
C[C@@H]1CCN(C(=O)c2cc(OC(F)F)cc(C3CC3)c2)C[C@H]1c1cc(C(F)F)nc2ncnn12 [Compound 91]	100	0.372	708	61			0.372	100	94	22.4 nM	-7	
O=C(c1ccc2ncsc2c1)N1[C@H]2CC[C@@H]1[C@H](c1cc(C(F)F)nc3ncnn13)CC2 [Compound 25b]												hPDE2A Emax [1]: 92; hPDE2A pIC50 [1]: 5.96; hPDE2A Emax ([1]; human recombinant PDE2A): 92; hPDE2A pIC50 [1, 7]: 5.96; hPDE3B Emax [2]: 37; hPDE10A2 Emax ([3]; human clone (h), default): 28; hPDE10A2 pIC50 ([3]; human clone (h), default): <5; PDE2 Occupancy at 10 mg/kg (PDE2A; [6]): −9
C[C@@H]1CCN(C(=O)c2nc3ccccc3o2)C[C@H]1c1cc(C(F)F)nc2ncnn12 [Compound 47]	99	2.51	3390	80			2.51	99	92	646 nM	5	
Cc1nn(C)c2sc(C(=O)N3[C@H]4CC[C@H](c5cc(C(F)F)nc6ncnn56)[C@@H]3CC4)cc12 [Compound 335]	102	0.955	7240	52	98	87.1						receptor occupancy at 10 mg/kg (PDE2A; [6]): 88%; ED50 (PDE2A; po): 0.985 mg/kg
Cc1cc(C)cc(C(=O)N2[C@H]3CC[C@H](c4cc(C(F)F)nc5ncnn45)[C@@H]2CC3)c1 [Compound 302]	101	6.46	7940	59	93	891						receptor occupancy at 10 mg/kg (PDE2A; [6]): 1%
Cc1cc(C(=O)N2CC[C@@H](C)[C@H](c3cc(C(F)F)nc4ncnn34)C2)c(F)c(C)n1 [Compound 70]	102	1.95	5130	66			1.74	102	93	331 nM and 380 nM		hPDE10A2 Emax ([3]; human clone (h), default): 95; ED50 (PDE2A; [11]): 6.4 mg/kg; receptor occupancy at 10 mg/kg (PDE2A; [12]): 65%
Cc1cc(C(=O)N2CC[C@@H](C)[C@H](c3cc(C(F)F)nc4ncnn34)C2)c(C)cn1 [Compound 32]	100	3.47	> 10000	31			3.47	100	81	1450 nM	-6	
C[C@@H]1CCN(C(=O)c2cc(Cl)ncc2Cl)C[C@H]1c1cc(C(F)F)nc2ncnn12 [Compound 43]	99	5.01	> 10000	29			5.01	99	88	1320 nM	2	
O=C(c1ccc(C(F)(F)F)cc1)N1[C@H]2CC[C@H](c3cc(C(F)F)nc4ncnn34)[C@@H]1CC2 [Compound 340]	100	70.8	4270	69	72	3310						
